Assay results as given in PubChem BioAssay AID1259321 (Sanford-Burnham Center for Chemical Genomics, 2017).
Calls of active or inactive are those of the source.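 How the source made its calls: active means half-maximal concentration for changing protein binding to DNA, from the fitted dose curve, below 10 micromolar; inactive means the rest.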

The molecules below were run against Nuclear receptor subfamily 1 group D member 1 (Homo sapiens) (UniProt P20393) (assay: Rev-erbα–DNA interaction modulators – biochemical, FITC-DNA, fluorescence polarization, dose response (AID 1259321)). Details: Rev-erb alpha-FITC-DNA binding.
Chain of Nuclear receptor subfamily 1 group D member 1 (Homo sapiens) (P20393 whole entry, looked up): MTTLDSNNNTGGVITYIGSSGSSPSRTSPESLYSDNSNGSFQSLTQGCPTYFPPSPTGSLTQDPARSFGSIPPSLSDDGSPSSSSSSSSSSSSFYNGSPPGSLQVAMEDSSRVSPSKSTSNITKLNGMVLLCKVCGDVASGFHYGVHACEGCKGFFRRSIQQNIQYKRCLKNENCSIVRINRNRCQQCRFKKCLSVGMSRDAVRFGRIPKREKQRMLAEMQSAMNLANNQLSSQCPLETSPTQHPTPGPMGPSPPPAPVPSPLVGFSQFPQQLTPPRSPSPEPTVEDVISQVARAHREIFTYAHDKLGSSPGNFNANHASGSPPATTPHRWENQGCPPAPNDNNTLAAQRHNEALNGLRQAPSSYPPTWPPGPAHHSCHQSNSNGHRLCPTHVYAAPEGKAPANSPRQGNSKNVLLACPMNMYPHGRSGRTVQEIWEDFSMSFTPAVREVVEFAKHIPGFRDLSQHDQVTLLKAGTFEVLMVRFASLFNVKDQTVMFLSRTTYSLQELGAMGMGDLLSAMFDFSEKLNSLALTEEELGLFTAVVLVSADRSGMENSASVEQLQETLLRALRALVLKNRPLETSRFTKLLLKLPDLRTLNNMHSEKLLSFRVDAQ
With N#Cc1cc(C#N)c(N2CCN(c3cccc(Cl)n3)CC2)nc1N the IC50 was 5.79 µM.
CCOC(=O)CSc1nc2cc3c(cc2cc1C#N)OCCO3 was tested, and the IC50 was > 40 µM (inactive).
Molecule Cc1cc(C)c2cc(C#N)c(SCC(=O)NCC3CCCO3)nc2c1 (configuration not stated) has an IC50 of 3.95 µM.
COc1cc(C(=O)Nc2nc(-c3ccc(Cl)cc3)c(C)s2)ccc1OCC(=O)Nc1ccc(F)cc1 was tested, and the IC50 was > 40 µM (inactive).
With CCc1cc2cc3c(cc2nc1SCC(=O)Nc1nccs1)OCO3 the IC50 was > 40 µM (inactive).
With CC(=O)Nc1ccc(N2C(=O)c3cccc4c(O)ccc(c34)C2=O)cc1 the IC50 was 0.328 µM.
COc1ccc(-c2ccc3c(c2)c(Sc2ccccc2)c(-c2cc(OC)cc(OC)c2)n3C)cc1 was tested, and the IC50 was 6.89 µM.
With CCN1C(=O)/C(=C\N2CCN(c3ccc(F)cc3)CC2)SC1=S the IC50 was > 40 µM (inactive).
Work on N#CC1=C(SCC(N)=O)NC2=C(C(=O)c3ccccc32)C1c1ccc(Cl)cc1 (configuration not stated) yielded an IC50 of 7.01 µM.
Work on CC(C)c1nc2sc3c(SCC(N)=O)ncnc3c2c2c1CCC2 yielded an IC50 of 3.43 µM.
In the case of Cc1ccc(-c2csc3nc[nH]c(=S)c23)cc1C, the IC50 is reported as 2.1 µM.
For CCc1cc2c(C)ccc(C)c2nc1SCC(=O)Nc1c[nH]c(=O)[nH]c1=O, the IC50 was “inactive”.
O=c1c2ccccc2[nH]c(=S)n1Cc1ccc2c(c1)OCO2 was tested, and the IC50 was 2.5 µM.
Molecule COc1cc2oc(=O)cc(-c3ccc(-c4ccc(CO)cc4)cc3)c2c(OC)c1OC has an IC50 of 5.84 µM.
With CN1CCS/C1=C/C=C1/SC(=S)N(Cc2ccccc2)C1=O the IC50 was “inactive”.
Molecule Nc1ccc2nc3c(=O)n(CCc4ccccc4)c(=O)[nH]c3nc2c1 has an IC50 of 2.89 µM.
For COc1cccc(Nc2nc(-c3ccccc3O)nc3ccccc23)c1, the IC50 was 9.08 µM.
Work on CCn1c(SCC(=O)Nc2cc(C)on2)nc2sc(C)c(C)c2c1=O yielded an IC50 of 4.73 µM.
C=CCNc1nc(NCc2ccc(NC(C)=O)cc2)c2sc(-c3ccccc3)cc2n1 showed an IC50 of 5.43 µM.
Molecule COc1ccc(-c2nn(C)c(=O)c3ccccc23)cc1NC(=O)COc1ccccc1 has an IC50 of 7.9 µM.
COc1ccc(C(=O)Cn2cnc3ccc(Cl)cc3c2=O)cc1F was tested, and the IC50 was 5 µM.
In the case of Cn1cc(/C=C/c2cc[n+](C)cc2)c2cc(Cl)ccc21, the IC50 is reported as > 40 µM (inactive).
Cn1c2ccccc2n2c(=O)c(Cl)c(-c3ccccc3)c(C#N)c12 showed an IC50 of 3.4 µM.
With CC(=O)c1cccc(NC(=O)c2cccc(NC(=O)c3ccco3)c2)c1 the IC50 was 1.57 µM.
Molecule COc1ccc(/C=C2/SC(=O)N(CCC(=O)Nc3ccccc3)C2=O)cc1OC has an IC50 of 9.31 µM.
O=C1NC(=O)c2c(Br)c(Br)c(Br)c(Br)c21 showed an IC50 of 1.48 µM.
With COc1ccc(C(C)=O)cc1CSc1nc2ccccc2c(=O)n1-c1cccc(C)c1 the IC50 was 2.17 µM.
In the case of Fc1ccc(CSc2ncnc3c2oc2ccccc23)cc1, the IC50 is reported as 6.81 µM.
With CCCCCOc1ccc(NC(=O)CSc2cccc3cccnc23)cc1 the IC50 was 0.678 µM.
Molecule COc1ccc(NC(=O)NNC(=O)c2cc3ccccc3cc2O)cc1 has an IC50 of 9.78 µM.
In the case of Cc1cccc(NC(=O)CSc2ncnc3c2oc2ccccc23)c1, the IC50 is reported as 0.615 µM.
With COc1ccc(-c2nn(C)c3sc(C(=O)NCc4ccco4)cc23)cc1OC the IC50 was > 40 µM (inactive).
Molecule O=C(Nc1ccc(O)c(-c2nc3ccccc3s2)c1)c1cccs1 has an IC50 of 3.03 µM.
COc1ccc(C(=O)Nc2scc(-c3ccc(Cl)cc3Cl)c2C(N)=O)cc1 was tested, and the IC50 was “inactive”.
In the case of CCOc1ccc(CCNC(=O)c2cc(-c3ccccc3)c(N3CCOCC3)s2)cc1, the IC50 is reported as 4.5 µM.
O=S(=O)(c1ccc2nc(N3CCN(c4ccccc4)CC3)ccc2c1)N1CCCCC1 was tested, and the IC50 was “inactive”.
Cc1cccc(NC(=O)C2CCCN(S(=O)(=O)c3cccc4nsnc34)C2)c1 (configuration not stated) was tested, and the IC50 was 2.17 µM.
In the case of O=C(Cn1c(=S)[nH]c2ccccc2c1=O)NCCc1ccccc1, the IC50 is reported as 8.97 µM.
COC(=O)c1ccc(C(=O)OC)c(NC(=O)N2c3ccccc3Sc3ccccc32)c1 was tested, and the IC50 was > 40 µM (inactive).
With Oc1ccccc1-c1nc(NCc2ccccc2)c2ccccc2n1 the IC50 was > 40 µM (inactive).
O=C(CSc1nc2ccccc2c(=O)n1-c1ccc(F)cc1)Nc1ccc(Cl)c(S(=O)(=O)N2CCOCC2)c1 gave an IC50 of 2.38 µM.
Molecule COc1ccccc1NC(=O)COC(=O)c1ccc2c(c1)OCCO2 has an IC50 of 1.01 µM.
COc1ccc(-c2cc3c(=O)n(CC(=O)Nc4ccc(C(C)=O)cc4)ncn3n2)cc1 was tested, and the IC50 was “inactive”.
With CCNc1ccc2noc3c2c1C(=O)c1ccccc1-3 the IC50 was > 40 µM (inactive).
CCCCN1C(=O)/C(=C/C=C2\Oc3ccccc3N2CC)SC1=S showed an IC50 of 4.41 µM.
In the case of O=C(CSc1nc2ccccc2nc1N1CCCCC1)N1CCN(S(=O)(=O)c2cc(Cl)ccc2Cl)CC1, the IC50 is reported as 4.85 µM.
CCn1cc(C(=O)NCCc2ccccc2C)c(=O)c2ccc(C)nc21 was tested, and the IC50 was 1.16 µM.
Cc1ccc2[nH]c(C)c(/C=C/c3cc[n+](C)cc3)c2c1 was tested, and the IC50 was 8.6 µM.
In the case of C/C(N)=C(/C#N)C(=O)CSc1nc2ccccc2c(=O)n1-c1ccc(C)c(Cl)c1, the IC50 is reported as > 40 µM (inactive).
Cc1cc(-c2cccc([N+](=O)[O-])c2)nc2ccc3ccccc3c12 gave an IC50 of 3 µM.
Cc1nc(NCCc2ccc(Cl)cc2)c2nnn(Cc3ccccc3)c2n1 was tested, and the IC50 was 1.91 µM.
COCCN(Cc1cc2cc(C)ccc2n2nnnc12)C(=S)Nc1ccc(C)cc1 was tested, and the IC50 was “inactive”.
With CCOc1ccccc1NC(=O)c1nnn(CC(=O)Nc2cc(C)cc(C)c2)c1N the IC50 was > 40 µM (inactive).
Cc1ccc(NC(=O)CSc2nc3ccccc3nc2N2CCOCC2)c(C)c1 was tested, and the IC50 was “inactive”.
Molecule COC(=O)Cn1c(=NC(=O)c2nc3ccccc3s2)sc2cc(S(C)(=O)=O)ccc21 has an IC50 of 0.402 µM.
COc1ccccc1-c1nc(SCC(=O)Nc2cc(C)on2)c2c(=O)n(C)c(=O)n(C)c2n1 was tested, and the IC50 was 5.36 µM.
For O=C(O)c1ccccc1C(c1ccccc1)c1ccccc1O (configuration not stated), the IC50 was “inactive”.
For CCN(CC)c1ccc(-c2c(C#N)c(N)nc(OC)c2C#N)cc1, the IC50 was > 40 µM (inactive).
CC1(Cc2ccccc2OC(F)(F)F)C(=O)Nc2ccc(-c3ccsc3)cc21 (configuration not stated) showed an IC50 of 1.7 µM.
In the case of COc1ccc2c(C)cc(SCC(=O)Nc3cccnc3Cl)nc2c1, the IC50 is reported as > 40 µM (inactive).
With CCC(C)(C)c1ccc(OCCCC[n+]2cccc(C)c2)c(C(C)(C)CC)c1 the IC50 was 4.39 µM.
For CCC(C)NC(=O)Cc1c(OC)ccc2cc(Br)ccc12 (configuration not stated), the IC50 was 8.21 µM.
Molecule C=CCOc1ccc(C2C(C(=O)c3cccs3)=C(O)C(=O)N2c2nnc(C)s2)cc1 (configuration not stated) has an IC50 of 3.99 µM.
In the case of O=C(NCc1ccco1)c1ccc(Cn2c(=O)c3sccc3n(Cc3cccc(F)c3)c2=O)cc1, the IC50 is reported as > 40 µM (inactive).
O=C(Nc1nc2ccsc2c(=O)s1)c1ccc(Cl)cc1 gave an IC50 of 7.69 µM.
With COc1ccccc1N=Nc1c(O)[nH]c(=S)[nH]c1=O the IC50 was > 40 µM (inactive).
Molecule CCc1nnc(NC(=O)c2oc3ccc(Br)cc3c2C)s1 has an IC50 of 6.22 µM.
For Cc1ccc(NC(=O)c2sc(Cl)nc2-c2ccccc2)cc1C, the IC50 was “inactive”.
With CCOC(=O)c1nn(-c2ccc(F)cc2)c(=O)cc1OCC(=O)Nc1ccc(F)c(F)c1 the IC50 was > 40 µM (inactive).
With CCCCN1C(=O)/C(=C/C=C2\SCCN2C)SC1=S the IC50 was 3.18 µM.
In the case of CC1(C)Cc2c(c(N3CCCC3)nc3sc(C(=O)Nc4ccccc4)c(N)c23)CO1, the IC50 is reported as 3.37 µM.
Nc1ccc2ccc3cccc[n+]3c2c1 was tested, and the IC50 was 8.15 µM.
Molecule CCOc1ccc2nc(N/C(N)=N/C(=S)Nc3cccc(C)c3)nc(C)c2c1 has an IC50 of 8.37 µM.
Molecule O=C(CCc1c[nH]c2ccccc12)NCCc1ccc2c(c1)OCCO2 has an IC50 of 1.08 µM.
For CC(=O)Oc1ccc2oc(/C=C/N(C)C)c([N+](=O)[O-])c2c1, the IC50 was 3.91 µM.
CCN1C(=O)/C(=C/c2ccc(N3CCCC3)cc2)NC1=S showed an IC50 of 1.14 µM.
COC(=O)c1cccc(Cn2ccc3ccc(-c4ccc5ccn(C(=O)c6ccccc6OC)c5c4)cc32)c1 gave an IC50 of 0.91 µM.
